Positions count from the first letter of the chain named.
Assays:
Test in all cases: in vitro condensation assay, fluorescence microscopy of Ade4-mNG particles
Format in all cases: binding
[1] = molecular target: T1, Ade4-mNG (yeast PPAT Ade4) (Saccharomyces cerevisiae, UniProt P04046); settings: inhibits self-assembly, 0.2 µM protein, 10% PEG8K
T1 construct: full length, C-terminal mNeonGreen and Strep-tag II kept; purified from budding yeast cells
T1 sequence (P04046 2-510): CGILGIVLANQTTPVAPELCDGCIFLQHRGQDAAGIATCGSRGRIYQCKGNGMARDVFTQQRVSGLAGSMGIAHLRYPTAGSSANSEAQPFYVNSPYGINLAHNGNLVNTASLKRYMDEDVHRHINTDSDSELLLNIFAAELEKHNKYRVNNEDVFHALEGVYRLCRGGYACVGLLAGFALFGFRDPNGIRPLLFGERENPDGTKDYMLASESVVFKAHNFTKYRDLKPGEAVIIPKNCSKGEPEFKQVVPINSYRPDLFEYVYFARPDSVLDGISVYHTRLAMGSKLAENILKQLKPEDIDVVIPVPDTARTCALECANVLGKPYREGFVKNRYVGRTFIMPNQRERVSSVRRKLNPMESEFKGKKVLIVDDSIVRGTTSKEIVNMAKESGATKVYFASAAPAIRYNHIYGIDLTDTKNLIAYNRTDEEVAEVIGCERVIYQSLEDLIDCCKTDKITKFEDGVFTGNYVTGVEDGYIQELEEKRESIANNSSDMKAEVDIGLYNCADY

Ade4∆IDR-mNG = molecular target: T2, Ade4∆IDR-mNG (Saccharomyces cerevisiae, UniProt P04046); settings: inhibits self-assembly; 500 µM AMP, 0.2 µM protein, 10% PEG8K
T2 construct: C-terminal mNeonGreen and Strep-tag II kept; purified from budding yeast
T2 sequence (P04046 2-480 limits assumed): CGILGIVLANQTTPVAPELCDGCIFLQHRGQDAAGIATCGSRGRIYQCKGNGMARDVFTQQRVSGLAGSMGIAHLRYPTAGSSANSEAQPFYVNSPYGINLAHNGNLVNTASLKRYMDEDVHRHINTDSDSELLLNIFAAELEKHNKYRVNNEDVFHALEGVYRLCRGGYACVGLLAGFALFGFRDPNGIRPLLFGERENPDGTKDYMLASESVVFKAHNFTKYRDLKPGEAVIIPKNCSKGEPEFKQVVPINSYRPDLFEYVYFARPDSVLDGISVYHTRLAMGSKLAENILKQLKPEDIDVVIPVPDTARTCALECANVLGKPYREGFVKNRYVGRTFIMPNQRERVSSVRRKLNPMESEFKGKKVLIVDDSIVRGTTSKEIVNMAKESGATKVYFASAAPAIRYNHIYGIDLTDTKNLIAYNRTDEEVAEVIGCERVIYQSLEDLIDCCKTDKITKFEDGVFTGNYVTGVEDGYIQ

[2] = molecular target: T3, Ade4-mNG (yeast PPAT Ade4) (Saccharomyces cerevisiae, UniProt P04046, D373A/D374A); settings: inhibits self-assembly, less than wild type; 1 mM AMP, 0.2 µM protein, 10% PEG8K
T3 construct: full length, C-terminal mNeonGreen and Strep-tag II kept; purified from budding yeast cells
T3 sequence (P04046 2-510 D373A/D374A): T1 sequence (P04046 2-510) with D372A, D373A

Q: Which “in vitro condensation assay, fluorescence microscopy of Ade4-mNG particles” value (from here on “in vitro condensation assay”) ([1]; 5 mM MgCl2, pH 7.5) does the source give for `Nc1ncnc2c1ncn2[C@@H]1O[C@H](COP(=O)(O)OP(=O)(O)O)[C@@H](O)[C@H]1O` [ADP] here?
A: In the presence of GMP, AMP, ADP, and ATP, the condensation of Ade4-mNG was significantly reduced

Q: Which results are given for `Nc1ncnc2c1ncn2[C@@H]1O[C@H](COP(=O)(O)O)[C@@H](O)[C@H]1O` [AMP]?
A: in vitro condensation assay, fluorescence microscopy of Ade4-mNG particles (Ade4∆IDR-mNG): AMP also suppressed the condensation of Ade4∆IDR-mNG; in vitro condensation assay, fluorescence microscopy of Ade4-mNG particles [2]: AMP inhibited the assembly of Ade4-DA-mNG condensates, albeit less effectively than that of Ade4-mNG condensates; in vitro condensation assay, fluorescence microscopy of Ade4-mNG particles ([1]; 5 mM MgCl2, pH 7.5, counteracted by PRPP): In the presence of GMP, AMP, ADP, and ATP, the condensation of Ade4-mNG was significantly reduced

Q: For `Nc1ncnc2c1ncn2[C@@H]1O[C@H](COP(=O)(O)OP(=O)(O)OP(=O)(O)O)[C@@H](O)[C@H]1O` [ATP], which “in vitro condensation assay” value ([1]; 5 mM MgCl2, pH 7.5) is on record?
A: In the presence of GMP, AMP, ADP, and ATP, the condensation of Ade4-mNG was significantly reduced

Q: For `Nc1nc2c(ncn2[C@@H]2O[C@H](COP(=O)(O)O)[C@@H](O)[C@H]2O)c(=O)[nH]1` [GMP], which “in vitro condensation assay” value ([1]; 5 mM MgCl2, pH 7.5) is on record?
A: In the presence of GMP, AMP, ADP, and ATP, the condensation of Ade4-mNG was significantly reduced

Q: For `Nc1ncnc2c1ncn2[C@@H]1O[C@H](CSCC[C@H](N)C(=O)O)[C@@H](O)[C@H]1O` [SAH], which “in vitro condensation assay” value ([1]; weaker than AMP, 500 µM SAH, 0.5% DMSO) is on record?
A: exerted approximately one-third the inhibitory effect of AMP
